Measured values: patent publication US11000033B2, “Ketone or oxime compound, and herbicide” (NISSAN CHEMICAL CORPORATION, priority 2014, dated 2021)

Tests used:
Type in all cases: in vivo
Alopecurus myosuroides = assay: Test Example 5: herbicidal effect by foliage application, plastic box (symbol J); conditions: 320 g/ha, 3 weeks after application
How it was run: (§1)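 Effect is rated 3 weeks after a foliar spray of water-diluted emulsion concentrate at a predetermined herbicide amount. Plants had grown 14 days in a 25° C. to 30° C. greenhouse from seed in sterilized diluvial soil.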

Setaria viridis [1] = assay: Test Example 5: herbicidal effect by foliage application, plastic box (symbol G); conditions: 320 g/ha, 3 weeks after application
How it was run: as §1

Galium spurium = assay: Test Example 4: herbicidal effect by soil treatment (symbol Q); conditions: application herbicide amount 320 g/ha
How it was run: (§2)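 Seeds were sown in sterilized diluvial soil, covered with about 1.5 cm of soil, and the soil surface was sprayed with a water-diluted emulsion of the compound at a predetermined rate. Plants grew in a greenhouse at 25° C. to 30° C.; effects were scored visually 3 weeks after application.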

Chenopodium album = assay: Test Example 4: herbicidal effect by soil treatment (symbol O); conditions: application herbicide amount 320 g/ha
How it was run: as §2

Amaranthus retroflexus = assay: Test Example 4: herbicidal effect by soil treatment (symbol N); conditions: application herbicide amount 320 g/ha
How it was run: as §2

Veronica persica = assay: Test Example 4: herbicidal effect by soil treatment (symbol R); conditions: application herbicide amount 320 g/ha
How it was run: as §2

[2] = test system: Echinochloa crus-galli var. crus-galli; assay: Test Example 5: herbicidal effect by foliage application, plastic box (symbol H); conditions: 320 g/ha, 3 weeks after application
How it was run: as §1

Scirpus juncoides = assay: Test Example 1: herbicidal activity, application before weed generation in submerged conditions (symbol B); conditions: application herbicide amount 320 g/ha
How it was run: (§3)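 Paddy pre-emergence test. Formulated emulsion, water-diluted to a predetermined rate, is applied to floodwater on sowing day; rice transplanted at 2.5 leaves. Effect read at 3 weeks on a 0–5 herbicidal-ratio scale.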

[3] = test system: Echinochloa oryzacola Vasing.; assay: Test Example 1: herbicidal activity, application before weed generation in submerged conditions (symbol A); conditions: application herbicide amount 320 g/ha
How it was run: as §3

Setaria viridis [4] = assay: Test Example 4: herbicidal effect by soil treatment (symbol G); conditions: application herbicide amount 320 g/ha
How it was run: as §2

SMILES | J: Alopecurus myosuroides, herbicidal effect (criteria of Test Example 1) (Alopecurus myosuroides) | G: Setaria viridis, herbicidal effect (criteria of Test Example 1) (Setaria viridis [1]) | Herbicidal effect grade, Q: Galium spurium (Galium spurium) | Herbicidal effect grade, O: Chenopodium album (Chenopodium album) | Herbicidal effect grade, N: Amaranthus retroflexus (Amaranthus retroflexus) | Herbicidal effect grade, R: Veronica persica (Veronica persica) | H: Echinochloa crus-galli var. crus-galli, herbicidal effect (criteria of Test Example 1) [2] | Herbicidal effect grade, B: Scirpus juncoides (Scirpus juncoides) | Herbicidal effect grade, A: Echinochloa oryzacola Vasing. [3] | Herbicidal effect grade, G: Setaria viridis (Setaria viridis [4]) | Q: Galium spurium, herbicidal effect grade (Galium spurium) | O: Chenopodium album, herbicidal effect grade (Chenopodium album) | N: Amaranthus retroflexus, herbicidal effect grade (Amaranthus retroflexus) | R: Veronica persica, herbicidal effect grade (Veronica persica) | G: Setaria viridis, herbicidal effect grade (Setaria viridis [4])
CC(=O)CC1CC(O)=C(c2c(C)cc(-n3cccn3)cc2C)C1=O (stereo not drawn) [7-024] | 2 (Herbicidal ratio of 20% or higher and lower than 40%) | 0 (Herbicidal ratio of 5% or lower (almost no effect)) | 0 (Herbicidal ratio of 5% or lower (almost no effect)) | 0 (Herbicidal ratio of 5% or lower (almost no effect)) | 0 (Herbicidal ratio of 5% or lower (almost no effect)) | 0 (Herbicidal ratio of 5% or lower (almost no effect)) | 5 (Herbicidal ratio of 90% or more (almost completely withered)) | 1 (Herbicidal ratio of 5% or higher and lower than 20%) | 2 (Herbicidal ratio of 20% or higher and lower than 40%) | 0 (Herbicidal ratio of 5% or lower (almost no effect)) |  |  |  |  | 
CC(=O)CC1CC(O)=C(c2c(C)cc(-c3ccccn3)cc2C)C1=O (stereo not drawn) [7-012] | 3 (Herbicidal ratio of 40% or higher and lower than 70%) | 5 (Herbicidal ratio of 90% or more (almost completely withered)) | 0 (Herbicidal ratio of 5% or lower (almost no effect)) | 0 (Herbicidal ratio of 5% or lower (almost no effect)) | 0 (Herbicidal ratio of 5% or lower (almost no effect)) | 0 (Herbicidal ratio of 5% or lower (almost no effect)) | 5 (Herbicidal ratio of 90% or more (almost completely withered)) | 0 (Herbicidal ratio of 5% or lower (almost no effect)) | 3 (Herbicidal ratio of 40% or higher and lower than 70%) | 5 (Herbicidal ratio of 90% or more (almost completely withered)) |  |  |  |  | 
CON=C(C)C(C)C1CC(O)=C(c2c(C)cc(Br)cc2OC)C1=O (stereo not drawn) [6-113] | 5 (Herbicidal ratio of 90% or more (almost completely withered)) | 5 (Herbicidal ratio of 90% or more (almost completely withered)) | 0 (Herbicidal ratio of 5% or lower (almost no effect)) | 0 (Herbicidal ratio of 5% or lower (almost no effect)) | 0 (Herbicidal ratio of 5% or lower (almost no effect)) | 0 (Herbicidal ratio of 5% or lower (almost no effect)) | 5 (Herbicidal ratio of 90% or more (almost completely withered)) | 0 (Herbicidal ratio of 5% or lower (almost no effect)) | 4 (Herbicidal ratio of 70% or higher and lower than 90%) | 5 (Herbicidal ratio of 90% or more (almost completely withered)) |  |  |  |  | 
CC(=O)CC1CC(O)=C(c2c(C)cc(-c3ccc(C(F)(F)F)cc3)cc2C)C1=O (stereo not drawn) [7-005] | 2 (Herbicidal ratio of 20% or higher and lower than 40%) | 4 (Herbicidal ratio of 70% or higher and lower than 90%) | 0 (Herbicidal ratio of 5% or lower (almost no effect)) | 0 (Herbicidal ratio of 5% or lower (almost no effect)) | 0 (Herbicidal ratio of 5% or lower (almost no effect)) | 0 (Herbicidal ratio of 5% or lower (almost no effect)) | 5 (Herbicidal ratio of 90% or more (almost completely withered)) | 0 (Herbicidal ratio of 5% or lower (almost no effect)) | 3 (Herbicidal ratio of 40% or higher and lower than 70%) | 0 (Herbicidal ratio of 5% or lower (almost no effect)) |  |  |  |  | 
CON=C(C)CC1CC(OC(=O)N2CCCC2)=C(c2c(C)cc(C)cc2OC)C1=O (stereo not drawn) [6-110] | 5 (Herbicidal ratio of 90% or more (almost completely withered)) | 5 (Herbicidal ratio of 90% or more (almost completely withered)) | 0 (Herbicidal ratio of 5% or lower (almost no effect)) | 0 (Herbicidal ratio of 5% or lower (almost no effect)) | 0 (Herbicidal ratio of 5% or lower (almost no effect)) | 0 (Herbicidal ratio of 5% or lower (almost no effect)) | 5 (Herbicidal ratio of 90% or more (almost completely withered)) | 3 (Herbicidal ratio of 40% or higher and lower than 70%) | 5 (Herbicidal ratio of 90% or more (almost completely withered)) | 0 (Herbicidal ratio of 5% or lower (almost no effect)) |  |  |  |  | 
CON=C(C)CC1CC(OC(=O)N2CCCCC2)=C(c2c(C)cc(C)cc2OC)C1=O (stereo not drawn) [6-111] | 5 (Herbicidal ratio of 90% or more (almost completely withered)) | 5 (Herbicidal ratio of 90% or more (almost completely withered)) | 0 (Herbicidal ratio of 5% or lower (almost no effect)) | 0 (Herbicidal ratio of 5% or lower (almost no effect)) | 0 (Herbicidal ratio of 5% or lower (almost no effect)) | 0 (Herbicidal ratio of 5% or lower (almost no effect)) | 5 (Herbicidal ratio of 90% or more (almost completely withered)) | 5 (Herbicidal ratio of 90% or more (almost completely withered)) | 5 (Herbicidal ratio of 90% or more (almost completely withered)) | 0 (Herbicidal ratio of 5% or lower (almost no effect)) |  |  |  |  | 
CON=C(C)CC1CC(O)=C(c2c(C)cc(C)cc2SC)C1=O (stereo not drawn) [6-075] | 5 (Herbicidal ratio of 90% or more (almost completely withered)) | 0 (Herbicidal ratio of 5% or lower (almost no effect)) |  |  |  |  | 2 (Herbicidal ratio of 20% or higher and lower than 40%) | 1 (Herbicidal ratio of 5% or higher and lower than 20%) | 4 (Herbicidal ratio of 70% or higher and lower than 90%) |  | 0 (Herbicidal ratio of 5% or lower (almost no effect)) | 0 (Herbicidal ratio of 5% or lower (almost no effect)) | 0 (Herbicidal ratio of 5% or lower (almost no effect)) | 0 (Herbicidal ratio of 5% or lower (almost no effect)) | 0 (Herbicidal ratio of 5% or lower (almost no effect))
CON=C(C)CC1CC(O)=C(c2c(C)cc(-n3cncn3)cc2C)C1=O (stereo not drawn) [6-074] | 0 (Herbicidal ratio of 5% or lower (almost no effect)) | 4 (Herbicidal ratio of 70% or higher and lower than 90%) |  |  |  |  | 3 (Herbicidal ratio of 40% or higher and lower than 70%) | 0 (Herbicidal ratio of 5% or lower (almost no effect)) | 1 (Herbicidal ratio of 5% or higher and lower than 20%) |  | 0 (Herbicidal ratio of 5% or lower (almost no effect)) | 0 (Herbicidal ratio of 5% or lower (almost no effect)) | 0 (Herbicidal ratio of 5% or lower (almost no effect)) | 0 (Herbicidal ratio of 5% or lower (almost no effect)) | 2 (Herbicidal ratio of 20% or higher and lower than 40%)
CC(=O)CC1CC(O)=C(c2c(C)cc(Oc3ccc(C(F)(F)F)cn3)cc2C)C1=O (stereo not drawn) [7-019] | 2 (Herbicidal ratio of 20% or higher and lower than 40%) | 3 (Herbicidal ratio of 40% or higher and lower than 70%) | 0 (Herbicidal ratio of 5% or lower (almost no effect)) | 0 (Herbicidal ratio of 5% or lower (almost no effect)) | 0 (Herbicidal ratio of 5% or lower (almost no effect)) | 0 (Herbicidal ratio of 5% or lower (almost no effect)) | 4 (Herbicidal ratio of 70% or higher and lower than 90%) | 0 (Herbicidal ratio of 5% or lower (almost no effect)) | 1 (Herbicidal ratio of 5% or higher and lower than 20%) | 2 (Herbicidal ratio of 20% or higher and lower than 40%) |  |  |  |  | 
